The term MIC denotes the lowest concentration found to suppress growth. One may read the IC50 as the concentration that gives 50% inhibition. Low values mean higher potency, high ones lower potency. A word on the inhibition: it is the relative decrease from the control value, in per cent.

Values after ≈ are worked out from the molar mass of the structure shown. Active and inactive are the calls of the source. No cut-off for these calls is given here. Where only a bound is given, the exact number is not on record here.

Experimental findings from ChEMBL document CHEMBL4304804, “Synthesis and biological evaluation of calycanthaceous alkaloid analogs” (Bioorg Med Chem, 2019) are described below.

Experiment [1] has as its system Verticillium dahliae. In words: Antifungal activity against Verticillium dahliae assessed as reduction in fungal cell growth incubated for 48 hrs by serial dilution method. It counts as functional.
Experiment [2] concerns Fusarium oxysporum f. sp. vasinfectum. Put plainly: Antifungal activity against Fusarium oxysporum sp. vasinfectum assessed as reduction in fungal cell growth incubated for 48 hrs by serial dilution method. The class given is functional.
For experiment [3], the system named is Cytospora. In words: Antifungal activity against Cytospora juglandis assessed as reduction in fungal cell growth incubated for 48 hrs by serial dilution method. It counts as functional.
The subject of experiment [4] is Aspergillus flavus. Put plainly: Antifungal activity against Aspergillus flavus assessed as reduction in fungal cell growth incubated for 48 hrs by serial dilution method. The class given is functional.
Experiment [5] concerns Penicillium citrinum. In words: Antifungal activity against Penicillium citrinum assessed as reduction in fungal cell growth incubated for 48 hrs by serial dilution method. The class given is functional.
Experiment [6] concerns Fusarium oxysporum. In words: Antifungal activity against Fusarium oxysporum assessed as reduction in fungal cell growth incubated for 48 hrs by serial dilution method. The class given is functional.
Experiment [7] concerns Colletotrichum orbiculare. In words: Antifungal activity against Colletotrichum orbiculare assessed as reduction in fungal cell growth incubated for 48 hrs by serial dilution method. It counts as functional.
Experiment [8] concerns Aspergillus niger. In words: Antifungal activity against Aspergillus niger assessed as reduction in fungal cell growth incubated for 48 hrs by serial dilution method. It counts as functional.
Experiment [9] deals with Curvularia lunata. In words: Antifungal activity against Curvularia lunata assessed as reduction in fungal cell growth incubated for 48 hrs by serial dilution method. It counts as functional.
In experiment [10] the test system is Escherichia coli. Put plainly: Antibacterial activity against Escherichia coli assessed as reduction in bacterial cell growth incubated for 24 hrs by filter paper assay. The class given is functional.
The subject of experiment [11] is Pseudomonas aeruginosa. In words: Antibacterial activity against Pseudomonas aeruginosa assessed as reduction in bacterial cell growth incubated for 24 hrs by filter paper assay. The class given is functional.
The test system of experiment [12] is Ralstonia solanacearum. In words: Antibacterial activity against Ralstonia solanacearum assessed as reduction in bacterial cell growth incubated for 24 hrs by filter paper assay. The class given is functional.
Experiment [13] has as its system Bacillus cereus. In words: Antibacterial activity against Bacillus cereus assessed as reduction in bacterial cell growth incubated for 24 hrs by filter paper assay. The class given is functional.
The test system of experiment [14] is Staphylococcus aureus. Put plainly: Antibacterial activity against Staphylococcus aureus assessed as reduction in bacterial cell growth incubated for 24 hrs by filter paper assay. The class given is functional.
Experiment [15] relates to Candida. In words: Antifungal activity against […] assessed as reduction in fungal cell growth incubated for 48 hrs by serial dilution method. It counts as functional.
The subject of experiment [16] is Cryptococcus neoformans. Put plainly: Antifungal activity against Cryptococcus neoformans assessed as reduction in fungal cell growth incubated for 48 hrs by serial dilution method. The class given is functional.
Experiment [17] relates to Candida tropicalis. In words: Antifungal activity against Candida tropicalis assessed as reduction in fungal cell growth incubated for 48 hrs by serial dilution method. The class given is functional.
The target in experiment [18] is Acetylcholinesterase (Electrophorus electricus, UniProt O42275). Put plainly: Inhibition of electric eel AChE by Ellman's colorimetry. In general terms: DTNB colorimetry detects thiols as they appear.
Chain of Acetylcholinesterase (O42275 whole entry): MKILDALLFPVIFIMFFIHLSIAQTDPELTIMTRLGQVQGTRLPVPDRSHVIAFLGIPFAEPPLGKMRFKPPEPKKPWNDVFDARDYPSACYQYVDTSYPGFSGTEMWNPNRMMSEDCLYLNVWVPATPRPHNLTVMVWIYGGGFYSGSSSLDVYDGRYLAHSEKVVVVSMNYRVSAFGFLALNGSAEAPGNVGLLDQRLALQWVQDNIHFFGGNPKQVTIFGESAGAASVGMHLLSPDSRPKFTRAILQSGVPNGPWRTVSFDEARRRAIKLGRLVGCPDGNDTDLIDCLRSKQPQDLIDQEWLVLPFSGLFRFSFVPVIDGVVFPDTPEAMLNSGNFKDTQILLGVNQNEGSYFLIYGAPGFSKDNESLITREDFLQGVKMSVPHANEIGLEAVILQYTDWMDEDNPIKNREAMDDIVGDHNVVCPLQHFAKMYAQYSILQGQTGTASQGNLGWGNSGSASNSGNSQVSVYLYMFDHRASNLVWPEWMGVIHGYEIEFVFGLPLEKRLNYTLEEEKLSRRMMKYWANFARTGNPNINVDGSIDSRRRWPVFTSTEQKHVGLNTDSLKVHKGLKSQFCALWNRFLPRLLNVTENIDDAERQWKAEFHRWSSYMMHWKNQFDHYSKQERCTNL
Experiment [19] deals with Acetylcholinesterase (Electrophorus electricus) (UniProt O42275). In words: Inhibition of electric eel AChE by at 1 mg/ml Ellman's colorimetry relative to control.
Chain of Acetylcholinesterase (Electrophorus electricus) (O42275 24-633 limits assumed): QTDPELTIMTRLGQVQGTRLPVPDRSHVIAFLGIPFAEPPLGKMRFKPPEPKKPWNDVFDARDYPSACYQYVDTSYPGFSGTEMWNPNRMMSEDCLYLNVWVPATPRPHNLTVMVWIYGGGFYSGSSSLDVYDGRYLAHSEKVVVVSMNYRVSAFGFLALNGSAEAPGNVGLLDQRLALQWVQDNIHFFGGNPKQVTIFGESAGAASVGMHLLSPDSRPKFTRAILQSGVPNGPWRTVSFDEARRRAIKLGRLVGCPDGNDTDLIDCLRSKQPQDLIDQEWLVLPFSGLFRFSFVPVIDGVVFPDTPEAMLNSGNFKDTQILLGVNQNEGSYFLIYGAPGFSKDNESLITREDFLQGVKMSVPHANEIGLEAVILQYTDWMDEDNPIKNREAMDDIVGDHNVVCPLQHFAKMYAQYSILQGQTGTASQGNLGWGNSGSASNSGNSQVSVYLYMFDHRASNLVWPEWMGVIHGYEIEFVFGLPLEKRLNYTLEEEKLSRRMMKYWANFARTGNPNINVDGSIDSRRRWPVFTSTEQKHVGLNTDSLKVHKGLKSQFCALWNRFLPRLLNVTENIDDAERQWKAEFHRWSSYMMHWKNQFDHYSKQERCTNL
The test system of experiment [20] is Curvularia lunata. Put plainly: Antifungal activity against Curvularia lunata assessed as reduction in fungal spore germination at 125 ug/ml relative to control. The class given is functional.

Regarding `CCCCCC(=O)N1CCCC2(O)c3ccccc3N(C)C12` (configuration not stated), the MIC in experiment [1] came to 125 µg/mL (≈ 413 µM); in [2], 250 µg/mL (≈ 827 µM); in experiment [3], 125 µg/mL (≈ 413 µM); in experiment [6], 250 µg/mL (≈ 827 µM); in experiment [7], 250 µg/mL (≈ 827 µM); in experiment [8] it was 250 µg/mL (≈ 827 µM). Also, the MIC in [9] was 250 µg/mL (≈ 827 µM); in [10], 250 µg/mL (≈ 827 µM); in experiment [11], 250 µg/mL (≈ 827 µM); in experiment [12], 125 µg/mL (≈ 413 µM); in [14], 125 µg/mL (≈ 413 µM); in [16], 250 µg/mL (≈ 827 µM). The MIC entry in experiment [4], in experiment [5], in [13], in experiment [15] and in experiment [17] was “inactive” throughout. In experiment [18], this compound gave an IC50 of 7570 nM. In addition, in experiment [19], the inhibition is over 80%.

For `Cc1cccc(CN2c3ccccc3C3(Cc4cccc(C)c4)CCN(S(=O)(=O)c4ccccc4)C23)c1` (configuration not stated), the MIC in experiment [1] was 31.2 µg/mL (≈ 61.4 µM); in experiment [2], 250 µg/mL (≈ 491 µM); in [3], 250 µg/mL (≈ 491 µM); in experiment [4], 250 µg/mL (≈ 491 µM); in [6], 250 µg/mL (≈ 491 µM); in experiment [7], 250 µg/mL (≈ 491 µM). Besides, the MIC in [8] stood at 250 µg/mL (≈ 491 µM); in experiment [10], 250 µg/mL (≈ 491 µM); in [11], 125 µg/mL (≈ 246 µM); in experiment [13], 125 µg/mL (≈ 246 µM); in experiment [15], 250 µg/mL (≈ 491 µM); in experiment [17], 125 µg/mL (≈ 246 µM). Also, the MIC result in experiment [5], in experiment [9], in [12], in experiment [14] and in [16] was “inactive” each time. The compound also showed an IC50 in experiment [18] of 2810 nM. The compound also returned an inhibition in experiment [19] of over 80%.

Take `CN1c2ccccc2C2(O)CCCN(C(=O)c3ccc(F)cc3)C12` (configuration not stated): the MIC in experiment [1], in experiment [2], in [3], in experiment [4], in experiment [5] and in [6] was 250 µg/mL (≈ 766 µM) throughout. Further, the MIC was 250 µg/mL (≈ 766 µM) in [7]; 125 µg/mL (≈ 383 µM) in experiment [9]; 250 µg/mL (≈ 766 µM) in [10]; 250 µg/mL (≈ 766 µM) in [11]; 125 µg/mL (≈ 383 µM) in experiment [12]; 250 µg/mL (≈ 766 µM) in [14]. Also, the MIC in [17] was 250 µg/mL (≈ 766 µM). Moreover, the MIC entry in experiment [8], in experiment [13], in experiment [15] and in experiment [16] was “inactive” in each case. Also, the IC50 in experiment [18] was 0.306 nM. In experiment [19], this compound showed an inhibition of over 80%.

Consider `Cc1ccc(S(=O)(=O)N2CCC3(Cc4ccccc4C)c4ccccc4N(Cc4ccccc4C)C23)cc1` (configuration not stated), for which the MIC in experiment [1] stood at 62.5 µg/mL (≈ 120 µM); in experiment [2], 250 µg/mL (≈ 478 µM); in experiment [3], 250 µg/mL (≈ 478 µM); in [4] it was 250 µg/mL (≈ 478 µM); in experiment [6] it was 250 µg/mL (≈ 478 µM); in experiment [7] it was 250 µg/mL (≈ 478 µM). For the same compound, the MIC in experiment [8], in experiment [10], in experiment [12], in experiment [14], in [15] and in experiment [17] was 250 µg/mL (≈ 478 µM) each time. For the same compound, the MIC result in experiment [5], in experiment [9], in experiment [11], in experiment [13] and in experiment [16] was “inactive” in each case. For the same compound, it took 210 nM to reach half-maximal inhibition in [18] (IC50). In addition, in experiment [19], the inhibition is over 80%.

With `Cc1ccccc1CN1c2ccccc2C2(Cc3ccccc3C)CCN(S(=O)(=O)c3ccccc3)C12` (configuration not stated), the MIC was found to be 125 µg/mL (≈ 246 µM) in experiment [1]; 250 µg/mL (≈ 491 µM) in experiment [2]; 250 µg/mL (≈ 491 µM) in experiment [3]; 250 µg/mL (≈ 491 µM) in experiment [4]; 250 µg/mL (≈ 491 µM) in experiment [6]; 250 µg/mL (≈ 491 µM) in experiment [7]. Further, the MIC in [8] was found to be 250 µg/mL (≈ 491 µM); in experiment [13], 125 µg/mL (≈ 246 µM); in experiment [15], 250 µg/mL (≈ 491 µM). For the same compound, the MIC entry in [5], in experiment [9], in experiment [10], in [11], in experiment [12] and in experiment [14] was “inactive” each time. Moreover, the MIC result in experiment [16] and in experiment [17] was “inactive” in each case. For the same compound, the inhibition result in experiment [20] is “Active”. In experiment [18], this compound gave a half-inhibitory concentration (IC50) of 275 nM. The compound further yielded an inhibition in experiment [19] of over 80%.

Regarding `CCC(=O)N1CCCC2(O)c3ccccc3N(C)C12` (configuration not stated), the MIC was determined as 250 µg/mL (≈ 960 µM) in experiment [1], 250 µg/mL (≈ 960 µM) in experiment [11] and 31.2 µg/mL (≈ 120 µM) in experiment [12]. Besides, the MIC entry in experiment [2], in experiment [3], in experiment [4], in experiment [5], in [6] and in experiment [7] was “inactive” in each case. Further, the MIC entry in [8], in experiment [9], in [10], in experiment [13], in experiment [14] and in experiment [15] was “inactive” throughout. The MIC entry in experiment [16] and in [17] was “inactive” each time. In addition, inhibition in experiment [18] was half-maximal at 0.0384 nM (IC50). In experiment [19], this compound registered an inhibition of over 80%.

For the compound `CC(C)C(=O)N1CCCC2(O)c3ccccc3N(C)C12` (configuration not stated), the minimum inhibitory concentration (MIC) in experiment [1] and in [11] was 250 µg/mL (≈ 911 µM) in each case. Also, the MIC result in experiment [2], in experiment [3], in [4], in experiment [5], in [6] and in [7] was “inactive” in each case. Further, the MIC result in experiment [8], in experiment [9], in experiment [10], in experiment [12], in experiment [13] and in [14] was “inactive” each time. The MIC entry in experiment [15], in experiment [16] and in experiment [17] was “inactive” each time. In addition, the IC50 in experiment [18] is 510 nM. The compound also came in with an inhibition in experiment [19] of over 80%.

`Cc1ccc(C(=O)N2CCCC3(O)c4ccccc4N(C)C23)cc1` (configuration not stated): the MIC in [1] and in experiment [11] was 250 µg/mL (≈ 775 µM) each time. Further, the MIC result in [2], in [3], in experiment [4], in experiment [5], in [6] and in experiment [7] was “inactive” throughout. Besides, the MIC entry in [8], in experiment [9], in experiment [10], in experiment [12], in experiment [13] and in experiment [14] was “inactive” in each case. Besides, the MIC result in experiment [15], in experiment [16] and in experiment [17] was “inactive” each time. In experiment [18], this compound gave an IC50 of 2850 nM. Moreover, the inhibition in experiment [19] was over 80%.

In the case of `CN1c2ccccc2C2(O)CCCN(C(=O)c3ccccc3)C12` (configuration not stated), the MIC entry in [1], in experiment [2], in experiment [3], in experiment [4], in [5] and in experiment [6] was “inactive” throughout. Also, the MIC entry in experiment [7], in [8], in experiment [9], in [13], in [15] and in experiment [16] was “inactive” throughout. In addition, the MIC in [10] is 250 µg/mL (≈ 811 µM); in [11] it was 250 µg/mL (≈ 811 µM); in experiment [12] it was 62.5 µg/mL (≈ 203 µM); in [14] it was 250 µg/mL (≈ 811 µM); in [17], 250 µg/mL (≈ 811 µM). For the same compound, the IC50 in experiment [18] was 259 nM. The inhibition in experiment [19] was over 80%.
